ChEMBL document CHEMBL6083254, “Optimization of B-Ring-Functionalized Antimalarial Tambjamines and Prodiginines” (J Med Chem, 2024)
Activity calls are given as the source filed them. The rule behind the calls is not given here.

Columns and labels:
Plasmodium yoelii [1] = assay: Antiplasmodial activity against asexual erythrocytic stage of Plasmodium yoelii infected in female CFI mouse model assessed as reduction in parasitemia at 25 mg/kg, po administered once daily for 4 days and measured on day 5 by Giemsa staining based microscopic analysis relative to control; assay type: functional; design: scale not given: the % may be the effect or the level left; conditions: time 5 day
[2] = Metabolic stability in human liver microsomes assessed as half life measured upto 60 mins LC-MS analysis
Plasmodium falciparum [3] = assay: microbe, parasite or virus in culture; conditions: Dd2, 72 h
Plasmodium falciparum [4] = assay: microbe, parasite or virus in culture; conditions: D6, 72 h
Plasmodium yoelii [5] = assay: Antiplasmodial activity against asexual erythrocytic stage of Plasmodium yoelii infected in female CFI mouse model at 10 mg/kg, po administered once daily for 4 days and measured on day 5 by Giemsa staining based microscopic analysis; assay type: functional, organism-based; conditions: time 5.0 day
Plasmodium yoelii [6] = assay: Antiplasmodial activity against asexual erythrocytic stage of Plasmodium yoelii infected in female CFI mouse model assessed as reduction in parasitemia at 3 mg/kg, po administered once daily for 4 days and measured on day 5 by Giemsa staining based microscopic analysis relative to control; assay type: functional; design: scale not given: the % may be the effect or the level left
[7] = Aqueous solubility of compound in PBS buffer at pH 7.4 incubated for 90 mins by UV-vis spectroscopic analysis; conditions: pH 7.4, 1.5 h
[8] = Metabolic stability in mouse liver microsomes assessed as intrinsic clearance measured upto 60 mins LC-MS analysis
HepG2 = assay: (§1) Cytotoxicity against human HepG2 cells assessed as cell viability incubated for 72 hrs by MTT assay; assay type: toxicity, cell-based; conditions: hepg2
[9] = Metabolic stability in mouse liver microsomes assessed as half life measured upto 60 mins LC-MS analysis
Plasmodium yoelii [10] = assay: Antiplasmodial activity against asexual erythrocytic stage of Plasmodium yoelii infected in female CFI mouse model assessed as reduction in parasitemia at 1 mg/kg, po administered once daily for 4 days and measured on day 5 by Giemsa staining based microscopic analysis relative to control; assay type: functional; design: scale not given: the % may be the effect or the level left
Plasmodium yoelii [11] = assay: Antiplasmodial activity against asexual erythrocytic stage of Plasmodium yoelii infected in female CFI mouse model assessed as reduction in parasitemia at 10 mg/kg, po administered once daily for 4 days and measured on day 5 by Giemsa staining based microscopic analysis relative to control; assay type: functional; design: scale not given: the % may be the effect or the level left
Plasmodium yoelii [12] = assay: Antiplasmodial activity against asexual erythrocytic stage of Plasmodium yoelii infected in female CFI mouse model at 25 mg/kg, po administered once daily for 4 days and measured on day 5 by Giemsa staining based microscopic analysis; assay type: functional, organism-based; conditions: time 5.0 day
Plasmodium falciparum [13] = assay: microbe, parasite or virus in culture; conditions: Tm90-C2B, 72 h
[14] = Metabolic stability in human liver microsomes assessed as intrinsic clearance measured upto 60 mins LC-MS analysis
in vitro = conditions: human
Description: Selectivity index, ratio of IC50 for cytotoxicity against human HepG2 cells assessed as cell viability to IC50 for antiplasmodial activity against asexual erythrocytic stage of Plasmodium falciparum D6 assessed as inhibition of parasitic growth incubated

Plasmodium yoelii [15] = assay: Antiplasmodial activity against asexual erythrocytic stage of Plasmodium yoelii infected in po dosed female CFI mouse model assessed as reduction in parasitemia administered once daily for 4 days and measured on day 5 by Giemsa staining based microscopic analysis; assay type: functional; conditions: 120 h, time 5 day
[16] = as §1; assay type: toxicity, cell-based; conditions: human, HepG2 cells
[17] = Plasmodium yoelii, po, read-out: ED50

Row | Structure (SMILES) | Activity (Plasmodium yoelii [1]) [%] | half-life at 1 h [2] [min] | IC50 (Plasmodium falciparum [3]) [nM] | IC50 (Plasmodium falciparum [4]) [nM] | Activity (Plasmodium yoelii [5]) | Activity (Plasmodium yoelii [6]; time 5 day) [%] | solubility [7] [µM] | microsomal CLint at 1 h [8] [µL/min/mg] | IC50 (HepG2) [µM] | half-life at 1 h [9] [min] | Activity (Plasmodium yoelii [10]; time 5 day) [%] | Activity (Plasmodium yoelii [11]; time 5 day) [%] | Activity (Plasmodium yoelii [12]) | IC50 (Plasmodium falciparum [13]) [nM] | microsomal CLint at 1 h [14] [µL/min/mg] | selectivity ratio (in vitro) | ED50 (Plasmodium yoelii [15]; [17]) [mg/kg/day] | Activity (Plasmodium yoelii [6]; time 5.0 day) | Activity (Plasmodium yoelii [10]; time 5.0 day) | Activity (Plasmodium yoelii [11]; time 5.0 day) | also measured
1 | CCCCCc1cc(/C=C2\N=C(c3ccc[nH]3)C=C2Oc2ccc(OC(F)(F)F)cc2)[nH]c1C.Cl | 100 | 59.4 | 7.4 | 8.61 | inactive | 92 | < 3.125 | 36.4 | 16.5 | 38 | 49.1 | 100 | Active | 9.54 | 23.3 | 1910 | 1.01 |  |  |  | 
2 | CCCCCCCCCCCc1ccc(/C=C2\N=C(c3ccc[nH]3)C=C2OCCC)[nH]1.Cl | 100 |  | 7.56 | 6.71 |  |  |  |  | 18.9 |  |  |  | inactive | 8.01 |  | 2810 |  | inactive | inactive | inactive | 
3 | CCCCCc1cc(/C=C2\N=C(c3ccc[nH]3)C=C2OCc2ccccc2)[nH]c1C.Cl | 100 | > 60 | 4.25 | 7.91 |  | 43.3 | < 3.125 | 7.33 | 7.09 | > 60 | 16.8 | 86.9 |  | 9.73 | 3.89 | 896 |  |  |  |  | 
4 | CCCCCc1cc(/C=C2\N=C(c3ccc[nH]3)C=C2OCC)[nH]c1C.Cl | 100 |  | 1.31 | 2.45 | inactive | 46.6 |  |  | 3.68 |  | 2.1 | 100 |  | 7.29 |  | 1500 | 3.12 |  |  |  | ED50 (Plasmodium yoelii [15]): 5.61 mg/kg/day
5 | CCCCCc1cc(/C=C2\N=C(c3ccc[nH]3)C=C2OC(C)C)[nH]c1C.Cl | 100 |  | 0.27 | 1.09 | inactive | 71.8 |  |  | 3.48 |  | 4.2 | 100 | Active | 1.56 |  | 3190 | 2.25 |  |  |  | ED50 (Plasmodium yoelii [15]): 4.42 mg/kg/day
6 | CCCCCc1cc(/C=C2\N=C(c3ccc[nH]3)C=C2OCc2ccc(Cl)cc2)[nH]c1C.Cl | 97.1 |  | 4.44 | 7.13 |  |  |  |  | 10.5 |  |  |  |  | 8.73 |  | 1480 |  | inactive | inactive | inactive | 
7 | CCCCCCCCCCCc1ccc(/C=C2\N=C(c3ccc[nH]3)C=C2Oc2ccccc2)[nH]1.Cl | 100 | 59.2 | 80.9 |  |  |  | 8.19 | 85.7 |  | 16.2 |  |  | inactive | 64.3 | 23.4 | > 2440 |  | inactive | inactive | inactive | IC50 at 72 h [16]: > 200 µM
8 | CCN(CC)CCCC(C)Nc1ccnc2cc(Cl)ccc12 (centres undefined) [CHLOROQUINE] | 100 |  |  |  |  |  |  |  |  |  |  |  | inactive |  |  |  |  | inactive | inactive | inactive | 
9 | CCCCCCCCCCCc1ccc(/C=C2\N=C(c3ccc[nH]3)C=C2OC(C)C)[nH]1.Cl | 100 |  | 18.2 | 26.9 |  |  |  |  | 87.3 |  |  |  | inactive | 35.6 |  | 3240 |  | inactive | inactive | inactive | 
